For orientation: Ki means the dissociation constant of the complex between target and ligand, obtained from inhibition or displacement.

The text below walks through data of patent US7741341B2, “Benzimidazole-derivatives as factor Xa inhibitors” (sanofi-aventis Deutschland GmbH, priority 2003, dated 2010).

T1 sequence (P00742 235-488 limits assumed): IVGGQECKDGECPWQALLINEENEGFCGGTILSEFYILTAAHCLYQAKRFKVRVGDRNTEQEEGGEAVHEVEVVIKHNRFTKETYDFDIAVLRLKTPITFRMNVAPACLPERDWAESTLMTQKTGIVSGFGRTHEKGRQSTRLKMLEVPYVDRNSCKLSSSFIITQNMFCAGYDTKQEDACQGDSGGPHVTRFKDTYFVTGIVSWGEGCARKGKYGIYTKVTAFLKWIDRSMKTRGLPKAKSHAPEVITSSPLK
T1 sequence (P00742 41-179 partner limits assumed): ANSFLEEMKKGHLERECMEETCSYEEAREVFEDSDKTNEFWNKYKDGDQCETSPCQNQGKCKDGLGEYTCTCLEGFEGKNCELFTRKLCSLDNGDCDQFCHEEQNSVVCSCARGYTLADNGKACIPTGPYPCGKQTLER

This assay addresses T1, human factor Xa (Homo sapiens, UniProt P00742).
T1 construct: human factor Xa (Enzyme Research Laboratories, Inc; South Bend, Ind.); purchased Enzyme Research Laboratories, Inc; South Bend, Ind
Kind of assay: Factor Xa assay (chromogenic, substrate S-2765). The assay is classed as biochemical. As to conditions: read-out: Ki(FXa). The protocol:
Purified enzymes were used in chromogenic assays.
The IC50 was determined by combining in appropriate wells of a Costar half-area microtiter plate 25 μl human factor Xa (Enzyme Research Laboratories, Inc.; South Bend, Ind.) in TBS-PEG; 40 μl 10% (v/v) DMSO in TBS-PEG (uninhibited control) or various concentrations of the compound to be tested diluted in 10% (v/v) DMSO in TBS-PEG; and substrate S-2765 (N(α)-benzyloxycarbonyl-D-Arg-Gly-L-Arg-p-nitroanilide; Kabi Pharmacia, Inc.; Franklin, Ohio) in TBS-PEG.
The assay was performed by pre-incubating the compound of formula I plus enzyme for 10 min. Then the assay was initiated by adding substrate to obtain a final volume of 100 μl. […] The enzyme concentration was 0.5 nM and substrate concentration was 140 μM.
For the compound `CC(C)N1CCC(NC(=O)c2nc3c(C(=O)O)cccc3n2CC(=O)Nc2ccc(Cl)cn2)CC1` [Example 16, 1-[(5-Chloro-pyridin-2-ylcarbamoyl)-methyl]-2-(1-isopropyl-piperidin-4-ylcarbamoyl)-1H-benzoimidazole-4-carboxylic acid], the Ki was 0.011 µM.

For `CC(C)N1CCC(NC(=O)c2nc3c(C(=O)NCCO)cccc3n2Cc2cc(-c3ccc(Cl)s3)on2)CC1` [Example 22, 1-[5-(5-Chloro-thiophen-2-yl)-isoxazol-3-ylmethyl]-1H-benzoimidazole-2,4-dicarboxylic acid 4-[(2-hydroxy-ethyl)-amide] 2-[(1-isopropyl-piperidin-4-yl)-amide]], the inhibition constant Ki worked out at 0.0007 µM.

As for `COC(=O)c1ccc2nc(C(=O)NC3CCN(C(C)C)CC3)n(Cc3cc(-c4ccc(Cl)s4)on3)c2c1` [Example 5b, 3-[5-(5-Chloro-thiophen-2-yl)-isoxazol-3-ylmethyl]-2-(1-isopropyl-piperidin-4-ylcarbamoyl)-3H-benzoimidazole-5-carboxylic acid methyl ester], the inhibition constant Ki came to 0.175 µM.

On to `CC(C)N1CCC(NC(=O)c2nc3c(C(=O)N4CCCOCC4)scc3n2CC(=O)Nc2ccc(Cl)cn2)CC1` [Example 104, 3-[(5-Chloro-pyridin-2-ylcarbamoyl)-methyl]-6-([1,4]oxazepane-4-carbonyl)-3H-thieno[3,4-d]imidazole-2-carboxylic acid (1-isopropyl-piperidin-4-yl)-amide], for which the inhibition constant Ki was determined as 0.02 µM.

As to `CC(C)N1CCC(NC(=O)c2nc3cc(C(=O)N4CC(O)C4)ccc3n2Cc2cc(-c3ccc(Cl)s3)on2)CC1` [Example 26, 1-[5-(5-Chloro-thiophen-2-yl)-isoxazol-3-ylmethyl]-5-(3-hydroxy-azetidine-1-carbonyl)-1H-benzoimidazole-2-carboxylic acid (1-isopropyl-piperidin-4-yl)-amide], the inhibition constant Ki was 0.0185 µM.

On to `CC(C)N1CCC(NC(=O)c2nc3c(C(=O)OCC(=O)O)cccc3n2Cc2cc(-c3ccc(Cl)s3)on2)CC1` [Example 66, 1-[5-(5-Chloro-thiophen-2-yl)-isoxazol-3-ylmethyl]-2-(1-isopropyl-piperidin-4-ylcarbamoyl)-1H-benzoimidazole-4-carboxylic acid carboxymethyl ester], for which the Ki came out at 0.003 µM.

In the case of `CC(C)N1CCC(NC(=O)c2nc3c(C(=O)N(C)CCO)cccc3n2Cc2cc(-c3ccc(Cl)s3)on2)CC1` [Example 24, 1-[5-(5-Chloro-thiophen-2-yl)-isoxazol-3-ylmethyl]-1H-benzoimidazole-2,4-dicarboxylic acid 4-[(2-hydroxy-ethyl)-methyl-amide] 2-[(1-isopropyl-piperidin-4-yl)-amide]], the Ki is 0.026 µM.

Turning to `O=C(Nc1ccc(N2CCOC2=O)cc1)c1nc2ccccc2n1Cc1cc(-c2ccc(Cl)s2)on1` [Example 42, 1-[5-(5-Chloro-thiophen-2-yl)-isoxazol-3-ylmethyl]-1H-benzoimidazole-2-carboxylic acid [4-(2-oxo-oxazolidin-3-yl)-phenyl]-amide], the inhibitory constant (Ki) is 0.462 µM.

As for `O=C1CCN(c2ccc(NC(=O)c3nc4ccccc4n3Cc3cc(-c4ccc(Cl)s4)on3)cc2)CC1` [Example 45, 1-[5-(5-Chloro-thiophen-2-yl)-isoxazol-3-ylmethyl]-1H-benzoimidazole-2-carboxylic acid [4-(4-oxo-piperidin-1-yl)-phenyl]-amide], the inhibitory constant (Ki) is 0.21 µM.

Take `CCOC(=O)OC(C)OC(=O)c1ccc2nc(C(=O)NC3CCN(C(C)C)CC3)n(CC(=O)Nc3ccc(Cl)cn3)c2c1` (centres unmarked) [Example 63, 3-[(5-Chloro-pyridin-2-ylcarbamoyl)-methyl]-2-(1-isopropyl-piperidin-4-ylcarbamoyl)-3H-benzoimidazole-5-carboxylic acid 1-ethoxycarbonyloxy-ethyl ester]: the Ki came to 0.687 µM.

Take `CC(C)N1CCC(NC(=O)c2nc3c(C(=O)NCCO)cccc3n2CC(=O)Nc2ccc(Cl)cn2)CC1` [Example 30, 1-[(5-Chloro-pyridin-2-ylcarbamoyl)-methyl]-1H-benzoimidazole-2,4-dicarboxylic acid 4-[(2-hydroxy-ethyl)-amide] 2-[(1-isopropyl-piperidin-4-yl)-amide]]: the Ki was 0.009 µM.

Take `CC(C)N1CCC(NC(=O)c2nc3cc(C(=O)O)ccc3n2Cc2cc(-c3ccc(Cl)s3)on2)CC1` [Example 6, 1-[5-(5-Chloro-thiophen-2-yl)-isoxazol-3-ylmethyl]-2-(1-isopropyl-piperidin-4-ylcarbamoyl)-1H-benzoimidazole-5-carboxylic acid]: the Ki worked out at 0.003 µM.

Consider `CC(C)N1CCC(NC(=O)c2nc3c(OCCO)cccc3n2CC(=O)Nc2ccc(Cl)cn2)CC1` [Example 110, 1-[(5-Chloro-pyridin-2-ylcarbamoyl)-methyl]-4-(2-hydroxy-ethoxy)-1H-benzoimidazole-2-carboxylic acid (1-isopropyl-piperidin-4-yl)-amide], for which the inhibition constant (Ki) came out at 0.004 µM.

For the compound `CC(C)N1CCC(NC(=O)c2nc3ccc(C(=O)O)cc3n2Cc2cc(-c3ccc(Cl)s3)on2)CC1` [Example 7, 3-[5-(5-Chloro-thiophen-2-yl)-isoxazol-3-ylmethyl]-2-(1-isopropyl-piperidin-4-ylcarbamoyl)-3H-benzoimidazole-5-carboxylic acid], the inhibition constant (Ki) came out at 0.0165 µM.

Regarding `CCOC(=O)OC(C)OC(=O)c1cccc2c1nc(C(=O)NC1CCN(C(C)C)CC1)n2CC(=O)Nc1ccc(Cl)cn1` (centres unmarked) [Example 33, 1-[(5-Chloro-pyridin-2-ylcarbamoyl)-methyl]-2-(1-isopropyl-piperidin-4-ylcarbamoyl)-1H-benzoimidazole-4-carboxylic acid 1-ethoxycarbonyloxy-ethyl ester], the inhibition constant (Ki) came out at 0.0125 µM.

As to `CC(C)N1CCC(NC(=O)c2nc3cccc(C(=O)O)c3n2Cc2cc(-c3ccc(Cl)s3)on2)CC1` [Example 13, 3-[5-(5-Chloro-thiophen-2-yl)-isoxazol-3-ylmethyl]-2-(1-isopropyl-piperidin-4-ylcarbamoyl)-3H-benzoimidazole-4-carboxylic acid], the inhibitory constant (Ki) was 0.299 µM.

In the case of `CN1C2CCC1CC(NC(=O)c1nc3ccccc3n1Cc1cc(-c3ccc(Cl)s3)on1)C2` (centres unmarked) [Example 40, 1-[5-(5-Chloro-thiophen-2-yl)-isoxazol-3-ylmethyl]-1H-benzoimidazole-2-carboxylic acid (8-methyl-8-aza-bicyclo[3.2.1]oct-3-yl)-amide], the inhibition constant Ki worked out at 0.02 µM.

Consider `O=C(Cn1c(C(=O)Nc2ccc(N3CCOCC3=O)cc2)nc2c(C(=O)O)cccc21)Nc1ccc(Cl)cn1` [Example 53, 1-[(5-Chloro-pyridin-2-ylcarbamoyl)-methyl]-2-[4-(3-oxo-morpholin-4-yl)-phenylcarbamoyl]-1H-benzoimidazole-4-carboxylic acid], for which the Ki was found to be 0.04 µM.

As to `O=C(NC1CCN(c2ccncn2)CC1)c1nc2ccccc2n1Cc1cc(-c2ccc(Cl)s2)on1` [Example 4, 1-[5-(5-Chloro-thiophen-2-yl)-isoxazol-3-ylmethyl]-1H-benzoimidazole-2-carboxylic acid (1-pyrimidin-4-yl-piperidin-4-yl)-amide], the Ki came out at 0.0592 µM.

Take `CC(C)N1CCC(NC(=O)c2nc3c(C(=O)OCC4CC4)cccc3n2CC(=O)Nc2ccc(Cl)cn2)CC1` [Example 69, 1-[(5-Chloro-pyridin-2-ylcarbamoyl)-methyl]-2-(1-isopropyl-piperidin-4-ylcarbamoyl)-1H-benzoimidazole-4-carboxylic acid cyclopropylmethyl ester]: the inhibition constant (Ki) was 0.015 µM.
